One test concerns the target Glutamate NMDA receptor (Rattus norvegicus) (UniProt P35439+Q00959+Q00960+Q00961+Q62645+Q8VHN2+Q9R1M7). Kind of test: Depolarizing activity relative to that of L-Glutamate (L-Glu=1) tested against NMDA type receptor in the newborn rat spinal motoneurone. It counts as protein-complex assay.
As for `O=C(O)[C@H]1CCN[C@H]1C(=O)O`, the Relative Potency Ratio was 3.

As to `CN[C@H](CC(=O)O)C(=O)O`, the Relative Potency Ratio amounted to 50.

For the compound `O=C(O)[C@H]1CCCN[C@@H]1C(=O)O` (racemic), the Relative Potency Ratio was 20.

Take `O=C(O)[C@H]1NCCC[C@H]1C(=O)O`: the Relative Potency Ratio was 10.

For the compound `O=C(O)[C@H]1NCC[C@H]1C(=O)O`, the Relative Potency Ratio is 0.1.

The target in a further test is Glutamate receptors; NMDA/AMPA (Rattus norvegicus) (UniProt P35439+Q00959+Q00960+Q00961+Q62645+Q8VHN2+Q9R1M7+P19491+P19492+P19493+P19490). As to the kind of experiment: Depolarizing activity relative to that of L-Glutamate (L-Glu=1) tested against mixed type(NMDA & AMPA) receptor in the newborn rat spinal motoneurone. It counts as protein-complex assay.
In the case of `O=C(O)[C@@H]1CCN[C@H]1C(=O)O`, the Relative Potency Ratio is 5.

Source of the values: ChEMBL document CHEMBL1152071, “Synthesis and neurobiological actions of pyrrolidine-2,3-dicarboxylic acids (PRDA). Conformationally restricted analogues of L-aspartate” (Bioorg Med Chem Lett, 1994).
